The results in this text go back to patent publication US7517874B2 (priority 2007, dated 2009).

Assay [1] deals with human CB1 receptor (hCB1) (Homo sapiens, UniProt P21554). Nature of the assay: cell-based. In kind it is cell-based. As to conditions: for +/− HCB1: agonist or inverse agonist at hCB1. The essentials: (§1)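 Agonism or inverse agonism was assessed as change in intracellular cAMP in CHO-K1 cells expressing human CB1 or rat CB2 (genomic DNA, pcDNA3.1).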
For another assay, the target named is T1, rat CB2 receptor (rCB2) (Rattus norvegicus, UniProt Q9QZN9).
T1 sequence (Q9QZN9 1-360): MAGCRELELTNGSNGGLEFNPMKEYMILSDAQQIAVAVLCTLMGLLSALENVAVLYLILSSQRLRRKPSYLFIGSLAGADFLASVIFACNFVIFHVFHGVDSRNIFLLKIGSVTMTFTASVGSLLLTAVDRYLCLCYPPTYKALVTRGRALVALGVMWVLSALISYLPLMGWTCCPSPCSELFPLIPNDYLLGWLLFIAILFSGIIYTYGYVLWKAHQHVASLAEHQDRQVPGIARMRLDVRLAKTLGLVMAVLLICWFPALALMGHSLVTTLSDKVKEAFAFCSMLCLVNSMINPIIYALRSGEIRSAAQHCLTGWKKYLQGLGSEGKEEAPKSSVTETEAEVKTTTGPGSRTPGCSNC
Nature of the assay: cell-based. In kind it is cell-based. As to conditions: for +/− RCB2: agonist or inverse agonist at rCB2. In a few lines:
as §1

[2] abbreviates: groups >100 nM-10 μM and >10 μM, cAMP, CHO-K1 hCB1, read-out: EC50 HCB1.
[3] abbreviates: groups >100 nM-10 μM and >10 μM, cAMP, CHO-K1 rCB2, read-out: EC50 RCB2.

Where two headings read alike, the source gives them in different places. Some results are limits rather than exact numbers.

human CB1 receptor (hCB1), sequence (P21554 whole entry): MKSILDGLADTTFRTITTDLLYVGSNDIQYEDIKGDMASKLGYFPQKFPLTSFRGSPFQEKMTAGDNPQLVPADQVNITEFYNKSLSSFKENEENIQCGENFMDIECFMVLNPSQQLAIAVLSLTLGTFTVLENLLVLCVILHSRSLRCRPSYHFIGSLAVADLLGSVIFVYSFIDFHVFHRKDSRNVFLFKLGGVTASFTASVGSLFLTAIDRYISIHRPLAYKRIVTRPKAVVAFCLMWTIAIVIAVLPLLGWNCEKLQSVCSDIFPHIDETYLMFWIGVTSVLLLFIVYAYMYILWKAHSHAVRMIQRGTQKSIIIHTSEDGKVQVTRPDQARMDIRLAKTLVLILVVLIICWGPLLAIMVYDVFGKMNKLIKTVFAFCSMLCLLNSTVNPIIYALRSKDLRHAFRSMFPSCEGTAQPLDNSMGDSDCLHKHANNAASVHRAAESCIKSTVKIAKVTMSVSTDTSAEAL

Consider `CNC(=O)[C@@H](NC(=O)c1nc(CC(C)C)n2c1CN(C)CC2)C(C)(C)C` [Compound 306, (S)-N-(3,3-dimethyl-1-(methylamino)-1-oxobutan-2-yl)-3-isobutyl-7-methyl-5,6,7,8-tetrahydroimidazo[1,5-a]pyrazine-1-carboxamide], for which, in assay [1], the EC50 (as a rule, the concentration that produces a half-maximal response) was above 10000 nM. The “+/− RCB2” value on rat CB2 receptor (rCB2) was “+”.
As for `CNC(=O)[C@H](CC(C)C)NC(=O)c1nc(C2=CCCC2)n2c1CN(C)CC2` [Compound 279, (S)-3-cyclopentenyl-7-methyl-N-(4-methyl-1-(methylamino)-1-oxopentan-2-yl)-5,6,7,8-tetrahydroimidazo[1,5-a]pyrazine-1-carboxamide], in assay [1], the “+/− HCB1” value is listed as “+”. Besides, the “+/− RCB2” value at rat CB2 receptor (rCB2) was “+”.
In turn, `CNC(=O)[C@@H](NC(=O)c1nc(CCCOC)n2c1CN(C)CCC2)C(C)(C)C` [Compound 489, (S)-N-(3,3-dimethyl-1-(methylamino)-1-oxobutan-2-yl)-3-(3-methoxypropyl)-8-methyl-6,7,8,9-tetrahydro-5H-imidazo[1,5-a][1,4]diazepine-1-carboxamide] displayed a concentration giving a half-maximal response (EC50) in assay [1] above 10000 nM. In addition, on rat CB2 receptor (rCB2), the “+/− RCB2” value is “+”.
For the compound `CNC(=O)[C@@H](NC(=O)c1nc(-c2cccc(S(=O)(=O)N3CCCC3)c2)n2c1CN(C)CCC2)C(C)(C)C` [Compound 385, (S)-N-(3,3-dimethyl-1-(methylamino)-1-oxobutan-2-yl)-8-methyl-3-(3-(pyrrolidin-1-ylsulfonyl)phenyl)-6,7,8,9-tetrahydro-5H-imidazo[1,5-a][1,4]diazepine-1-carboxamide], the EC50 (in assay [1]; on rat CB2 receptor (rCB2)) was above 10000 nM each time.
`CNC(=O)[C@@H](NC(=O)c1nc(C2CC2)n2c1CN(C)CCC2)C(C)(C)C` [Compound 435, (S)-3-cyclopropyl-N-(3,3-dimethyl-1-(methylamino)-1-oxobutan-2-yl)-8-methyl-6,7,8,9-tetrahydro-5H-imidazo[1,5-a][1,4]diazepine-1-carboxamide] displayed an EC50 in assay [1] above 10000 nM. Also, on rat CB2 receptor (rCB2), the “+/− RCB2” value is “+”.
As for `CNC(=O)c1ccccc1NC(=O)c1nc(-c2ccc(Cl)cc2F)n2c1CN(C)CC2` [Compound 217], the EC50 (in assay [1] (setting [2]); at rat CB2 receptor (rCB2) (setting [3])) was above 10000 nM throughout.
In the case of `CNC(=O)[C@@H](NC(=O)c1nc(-c2cccc3cccnc23)n2c1CN(C)CCC2)C(C)(C)C` [Compound 444], the EC50 in assay [1] was above 10000 nM. Also, on rat CB2 receptor (rCB2), the “+/− RCB2” value is given as “−”.
For `CC(C)(C)CNC(=O)c1nc(-c2ccccc2)n2c1CN(S(=O)(=O)c1ccc(F)cc1)CC2` [Compound 103, 7-(4-fluorophenylsulfonyl)-N-neopentyl-3-phenyl-5,6,7,8-tetrahydroimidazo[1,5-a]pyrazine-1-carboxamide], in that order: above 10000 nM and “−”.
Regarding `CNC(=O)[C@@H](NC(=O)c1nc(CCCN2CCOCC2)n2c1CN(C)CC2)C(C)(C)C` [Compound 309, (S)-N-(3,3-dimethyl-1-(methylamino)-1-oxobutan-2-yl)-7-methyl-3-(3-morpholinopropyl)-5,6,7,8-tetrahydroimidazo[1,5-a]pyrazine-1-carboxamide], the EC50 (in assay [1]; on rat CB2 receptor (rCB2)) was above 10000 nM each time.
For the compound `CC(C)(C)OC(=O)N1CCn2c(-c3ccccc3)nc(C(=O)NCC3CCOCC3)c2C1` [Compound 38, tert-butyl 3-phenyl-1-((tetrahydro-2H-pyran-4-yl)methylcarbamoyl)-5,6-dihydroimidazo[1,5-a]pyrazine-7(8H)-carboxylate], the EC50 in assay [1] (setting [2]) is above 10000 nM. Besides, the “+/− RCB2” value on rat CB2 receptor (rCB2) is “−”.
For `CNC(=O)[C@@H](NC(=O)c1nc(-c2ccccc2)n2c1CN(C(C)=O)CCC2)C(C)(C)C` [Compound 463, (S)-8-acetyl-N-(3,3-dimethyl-1-(methylamino)-1-oxobutan-2-yl)-3-phenyl-6,7,8,9-tetrahydro-5H-imidazo[1,5-a][1,4]diazepine-1-carboxamide], the EC50 in assay [1] was above 10000 nM. Besides, the “+/− RCB2” value at rat CB2 receptor (rCB2) is given as “+”.
The like results for `CNC(=O)[C@@H](NC(=O)c1nc(-c2ccc(C#N)cc2)n2c1CN(C)CC2)C(C)(C)C` [Compound 254, (S)-3-(4-cyanophenyl)-N-(3,3-dimethyl-1-(methylamino)-1-oxobutan-2-yl)-7-methyl-5,6,7,8-tetrahydroimidazo[1,5-a]pyrazine-1-carboxamide] were, in that order, above 10000 nM and “−”.
As to `CNC(=O)[C@@H](NC(=O)c1nc(-c2c(C)noc2C)n2c1CN(C)CCC2)C(C)(C)C` [Compound 442, N-((S)-3,3-dimethyl-1-(methylamino)-1-oxobutan-2-yl)-3-(3,5-dimethylisoxazol-4-yl)-8-methyl-6,7,8,9-tetrahydro-5H-imidazo[1,5-a][1,4]diazepine-1-carboxamide], in assay [1], the “+/− HCB1” value is “+”. Further, the “+/− RCB2” value on rat CB2 receptor (rCB2) was “+”.
`COC(=O)N1CCn2c(-c3ccccc3)nc(C(=O)NN3CCCCC3)c2C1` [Compound 182, methyl 3-phenyl-1-(piperidin-1-ylcarbamoyl)-5,6-dihydroimidazo[1,5-a]pyrazine-7(8H)-carboxylate]: the EC50 in assay [1] (setting [2]) was above 10000 nM. The “+/− RCB2” value at rat CB2 receptor (rCB2) was “−”.
`CNC(=O)[C@@H](NC(=O)c1nc(-c2cc(F)cc(F)c2)n2c1CN(C)CC2)C(C)(C)C` [Compound 262, (S)-3-(3,5-difluorophenyl)-N-(3,3-dimethyl-1-(methylamino)-1-oxobutan-2-yl)-7-methyl-5,6,7,8-tetrahydroimidazo[1,5-a]pyrazine-1-carboxamide]: the EC50 in assay [1] was above 10000 nM. In addition, the “+/− RCB2” value at rat CB2 receptor (rCB2) was “+”.
`CNC(=O)[C@@H](NC(=O)c1nc(-c2cccnc2)n2c1CN(C)CC2)C(C)(C)C` [Compound 252, (S)-N-(3,3-dimethyl-1-(methylamino)-1-oxobutan-2-yl)-7-methyl-3-(pyridin-3-yl)-5,6,7,8-tetrahydroimidazo[1,5-a]pyrazine-1-carboxamide] displayed an EC50 in assay [1] above 10000 nM. In addition, at rat CB2 receptor (rCB2), the “+/− RCB2” value is given as “+”.
For `CN1CCn2c(-c3ccc(Cl)cc3F)nc(C(=O)Nc3ccc(S(=O)(=O)N4CCOCC4)cc3)c2C1` [Compound 219], the EC50 in assay [1] (setting [2]) was above 10000 nM. The “+/− RCB2” value at rat CB2 receptor (rCB2) is “−”.
Compound `CNC(=O)[C@@H](NC(=O)c1nc(CCCN2CCCC2)n2c1CN(C)CC2)C(C)(C)C` [Compound 308, (S)-N-(3,3-dimethyl-1-(methylamino)-1-oxobutan-2-yl)-7-methyl-3-(3-(pyrrolidin-1-yl)propyl)-5,6,7,8-tetrahydroimidazo[1,5-a]pyrazine-1-carboxamide] showed an EC50 in assay [1] above 10000 nM. Also, the “+/− RCB2” value at rat CB2 receptor (rCB2) is recorded as “−”.
In assay [1], `CNC(=O)[C@@H](NC(=O)c1nc(Cl)n2c1CNCCC2)C(C)(C)C` [Compound 597, (S)-3-chloro-N-(3,3-dimethyl-1-(methylamino)-1-oxobutan-2-yl)-6,7,8,9-tetrahydro-5H-imidazo[1,5-a][1,4]diazepine-1-carboxamide] came in with an EC50 above 10000 nM. Also, the “+/− RCB2” value at rat CB2 receptor (rCB2) is listed as “+”.
For `CN1CCCn2c(-c3ccccc3)nc(C(=O)Nc3nc(C(C)(C)C)cs3)c2C1` [Compound 596, N-(4-tert-butylthiazol-2-yl)-8-methyl-3-phenyl-6,7,8,9-tetrahydro-5H-imidazo[1,5-a][1,4]diazepine-1-carboxamide], the EC50 (in assay [1] (setting [2]); at rat CB2 receptor (rCB2) (setting [3])) was above 10000 nM throughout.
